The target of the assay is T1, Sodium-dependent phosphate transport protein 2A (Homo sapiens, UniProt Q06495).
T1 sequence (Q06495 whole entry): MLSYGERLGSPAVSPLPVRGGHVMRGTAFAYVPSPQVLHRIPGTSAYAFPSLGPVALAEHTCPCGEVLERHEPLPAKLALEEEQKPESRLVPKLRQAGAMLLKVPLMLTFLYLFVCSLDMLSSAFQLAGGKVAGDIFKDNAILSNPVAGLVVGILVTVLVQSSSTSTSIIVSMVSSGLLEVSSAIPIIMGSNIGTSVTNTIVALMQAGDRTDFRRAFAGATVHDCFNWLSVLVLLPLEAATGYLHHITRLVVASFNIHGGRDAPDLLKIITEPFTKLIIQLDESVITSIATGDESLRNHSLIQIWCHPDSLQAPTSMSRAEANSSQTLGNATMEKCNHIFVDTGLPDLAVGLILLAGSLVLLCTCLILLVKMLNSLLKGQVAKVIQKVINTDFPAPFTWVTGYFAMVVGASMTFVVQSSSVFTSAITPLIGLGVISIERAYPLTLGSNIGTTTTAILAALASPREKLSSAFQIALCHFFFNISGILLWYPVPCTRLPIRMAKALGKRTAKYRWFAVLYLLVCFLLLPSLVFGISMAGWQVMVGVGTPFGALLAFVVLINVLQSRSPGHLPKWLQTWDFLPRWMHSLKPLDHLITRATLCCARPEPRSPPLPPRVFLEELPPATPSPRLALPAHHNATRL

The structures appear in SMILES notation.

Description: Substrate uptake by the Sodium-Dependent Phosphate Transport Protein 2A (NPT2a, SLC34A1) as assessed by the fluorescent FLIPR membrane potential dye in HEK-293 JumpIN-SLC34A1 cells (PubChem AID: 1794813)

As to `O=P([O-])(O)O.[K+]` [POTASSIUM PHOSPHATE, MONOBASIC], a half-maximal response (EC50) required 39 µM. On to `O=P([O-])([O-])O.[Na+].[Na+]` [SODIUM PHOSPHATE, DIBASIC, ANHYDROUS], for which the midpoint of the response, the EC50, lay at 32 µM.

(Values after ChEMBL document CHEMBL5209586, “Membrane potential-based assay for SLC34A1 using HEK293 JumpIn SLC34A1 OE cells” (2022).)
